From ChEMBL document CHEMBL1817565, “Synthesis and antimalarial evaluation of novel benzopyrano[4,3-b]benzopyran derivatives” (Bioorg Med Chem, 2011) come the findings set out here.

For data set [1], the system named is Plasmodium falciparum. The experiment in a line: Antimalarial activity against chloroquine-sensitive Plasmodium falciparum 3D7 infected in erythrocytes assessed as [3H] incorporation after 48 hrs by scintillation counter. In kind it is functional, organism-based.
A short description of data set [2]: Cytotoxicity against human NFF cells at 50 uM after 3 days by sulforhodamine B assay. In kind it is cell-based. The following applies: read-out: INH. In general terms: The SRB assay estimates cell density from bound dye.
Data set [3] in a line: Selectivity ratio of cytotoxicity against human NFF cells to IC50 for Plasmodium falciparum 3D7. It is filed as cell-based.

pIC50: −log10 of the molar value.

With `COc1cc(OC)c2c(c1OC)O[C@H]1c3c(OC)cc(OC)c(OC)c3O[C@H](c3ccc(Br)cc3)[C@H]1[C@@H]2/C=C/c1ccc(Br)cc1`, in data set [1], the pIC50 was 5.54. Moreover, in data set [2], the cytotoxicity at 72 h, 50 µM amounted to 46.3%. The selectivity ratio in data set [3] stood at 10.
As for `COc1cc(OC)c2c(c1OC)O[C@H]1c3c(OC)cc(OC)c(OC)c3O[C@H](c3ccc(C)cc3)[C@H]1[C@@H]2/C=C/c1ccc(C)cc1`, in data set [1], the pIC50 is 5.72. The cytotoxicity at 72 h, 50 µM in data set [2] was found to be 47.2%. Besides, the selectivity ratio in data set [3] was found to be 10.
As to `COc1cc(OC)c2c(c1OC)O[C@H]1c3c(OC)cc(OC)c(OC)c3O[C@H](c3ccccc3)[C@H]1[C@@H]2/C=C/c1ccccc1` [DEPENDENSIN], in data set [1], the pIC50 is 5.41. For the same compound, the cytotoxicity at 72 h, 50 µM in data set [2] was 46.9%. Besides, in data set [3], the selectivity ratio turned out to be 10.
For the compound `COc1ccc(/C=C/[C@@H]2c3c(OC)cc(OC)c(OC)c3O[C@H]3c4c(OC)cc(OC)c(OC)c4O[C@H](c4ccc(OC)cc4)[C@@H]23)cc1`, in data set [1], the pIC50 was 5.49. Also, the cytotoxicity at 72 h, 50 µM in data set [2] is 43.2%. Moreover, the selectivity ratio in data set [3] was 10.
Regarding `COc1cc(OC)c2c(c1OC)O[C@H]1c3c(OC)cc(OC)c(OC)c3O[C@H](c3ccc(Cl)cc3)[C@H]1[C@@H]2/C=C/c1ccc(Cl)cc1`, the pIC50 in data set [1] was 5.48. The cytotoxicity at 72 h, 50 µM in data set [2] was determined as 98.4%.

As usually defined, the pIC50 is the negative decadic logarithm of the IC50, by convention in mol/L.
